Measurements: patent US20050209157A1, “Short bioactive peptides and methods for their use” (priority 2001, published 2005)
Like-named read-outs stand apart in the source and are kept apart here. No end group written: not given here.

Legend:
[1] = test system: Pseudomonas aeruginosa ATCC 9027; assay: Antimicrobial assay I, MIC by OD measurement; type: cell-based; settings: 37° C. for 24 hours, absorbance 620 nm
[2] = test system: Staphylococcus aureus ATCC 6538; assay: Antimicrobial assay I, MIC by OD measurement; type: cell-based; settings: 37° C. for 24 hours, absorbance 620 nm
[3] = test system: yeast (Saccharomyces cerevisiae); assay: Antimicrobial assay I, yeast assay in RPMI 1640; type: cell-based; settings: RPMI 1640 media
S. aureus (MRSA) = type: cell-based, Staphylococcus aureus; settings: mean of three; 16 to 20 hours at 35° C.
S. epidermidis C621 = type: cell-based, Staphylococcus epidermidis; settings: mean of three; 16 to 20 hours at 35° C.
S. pyogenes M76 = assay: Antimicrobial assays II, NCCLS broth microdilution MIC; type: cell-based, Streptococcus pyogenes; settings: mean of three; 16 to 20 hours at 35° C.
S. pyogenes ATCC19615 = assay: as above; type: cell-based, Streptococcus pyogenes; settings: mean of three, in µg/mL
S. pneumoniae C718 = assay: as above; type: cell-based, Streptococcus pneumoniae; settings: mean of three
S. pneumoniae C719 = assay: as above; type: cell-based, Streptococcus pneumoniae; settings: mean of three, in µg/mL
P. acne ATCC 6919 = assay: as above; type: cell-based, Propionibacterium acnes; settings: mean of three, in µg/mL
BMKC = assay: Anti-cancer assay, MTT, LD50; type: cell-based; settings: BMKC cloned melanoma line, 24 hours with peptide
Source text: (§1) Numbers are LD50 values (μg/mL).

H1299 = assay: Anti-cancer assay, MTT, LD50; type: cell-based; settings: 24 hours with peptide, lung large cell carcinoma
Source text: as §1

HeLaS3 = assay: Anti-cancer assay, MTT, LD50; type: cell-based; settings: 24 hours with peptide, cervical carcinoma
Source text: as §1

MCF7 = assay: Anti-cancer assay, MTT, LD50; type: cell-based; settings: MCF7 breast adenocarcinoma line, MTT, 24 hours with peptide
Source text: as §1

PC3 = assay: Anti-cancer assay, MTT, LD50; type: cell-based; settings: 24 hours with peptide, prostate adenocarcinoma
Source text: as §1

SW480 = assay: Anti-cancer assay, MTT, LD50; type: cell-based; settings: SW480 colon adenocarcinoma line, 24 hours with peptide
Source text: as §1

in vitro [4] = type: cell-based, human; settings: human, human red blood cells, pH 7, hemolytic assay, concentration at 50% hemolysis, 1 hour at 37° C.; read-out: LD50
P. aeruginosa H374 = type: cell-based, Pseudomonas aeruginosa; settings: for MIC Cm-comb.: MIC of chloramphenicol with peptide at ¼ MIC; for MIC Nal-comb.: MIC of nalidixic acid with peptide at ¼ MIC; for FIC Index: 0.5 or less = synergy
How it was run: (§2)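 Efflux-mutant strains were tested with two-fold serial dilutions of chloramphenicol or nalidixic acid, alone and with peptide held at ¼ of its own MIC.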

P. aeruginosa H774 = type: cell-based, Pseudomonas aeruginosa; settings: P. aeruginosa H744; nalidixic acid + peptide at ¼ MIC; 0.5 or less = synergy
How it was run: as §2

P. aeruginosa = type: cell-based, Pseudomonas aeruginosa; settings: P. aeruginosa H744; MIC of nalidixic acid with peptide at ¼ MIC
How it was run: as §2

WI38 = settings: MTT, 24 hours with peptide; normal fibroblast line
in vitro [5] = settings: human, WI38 normal lung fibroblast cells, LD50 WI38, WI38 normal lung fibroblast line, MTT, 24 hours with peptide
[6] = chloramphenicol + peptide at ¼ MIC
[7] = nalidixic acid + peptide at ¼ MIC, FIC=0.25+MIC comb/MIC alone

Substance	paerug9027 (MIC) [1] [µg/mL]	staph6538 (MIC) [2] [µg/mL]	yeast (MIC or MFC) [3]	S. aureus (MRSA) MIC (S. aureus (MRSA)) [µg/mL]	S. epidermidis C621 MIC (S. epidermidis C621) [µg/mL]	S. pyogenes M76 MIC (S. pyogenes M76) [µg/mL]	S. pyogenes MIC (S. pyogenes ATCC19615)	S. pneumoniae MIC (S. pneumoniae C718) [µg/mL]	S. pneumoniae MIC (S. pneumoniae C719)	P. acne MIC (P. acne ATCC 6919)	LD50 BMKC (BMKC) [µg/mL]	H1299 LD50 (H1299) [µg/mL]	HeLaS3 LD50 (HeLaS3) [µg/mL]	LD50 MCF7 (MCF7) [µg/mL]	PC3 LD50 (PC3) [µg/mL]	LD50 SW480 (SW480) [µg/mL]	HC50 at 1 h (in vitro [4]) [µg/mL]	MIC Cm-comb. (P. aeruginosa H374) [µg/mL]	MIC Nal-comb. (P. aeruginosa H374) [µg/mL]	FIC Index (P. aeruginosa H374; [6])	further results
FALAAKALKKLAKKLKKLAKKAL-NH2 [P23]	50	5	100 µg/mL	32	16	16	8	16	16	4	27	64	82	62	41	5	300	8	2500	0.75	FIC Index (P. aeruginosa H374; [7]): 0.75; FIC Index (P. aeruginosa H774): 1.25; MIC Nal-comb. (P. aeruginosa): 624 µg/mL; WI38 LD50 (WI38): 34 µg/mL; CC50 at 24 h (in vitro [5]): 34 µg/mL
FAKLLAKALKKFAL-NH2 [P119, FAKLLAKALKKFAL-NH2]	25	50	50 µg/mL	8	4	8	8	128	32	8	36	33	30	54	140	46	400	16	2500	1.25	FIC Index (P. aeruginosa H374; [7]): 0.75; FIC Index (P. aeruginosa H774): 1.25; MIC Nal-comb. (P. aeruginosa): 624 µg/mL; WI38 LD50 (WI38): 45 µg/mL; CC50 at 24 h (in vitro [5]): 45 µg/mL
FALAKLAKKAKAKLKKALKAL-NH2 [P26]	15	10	> (> indicates greater than 200 μg/mL)	32	4	4	4	> 128	16	4	94	84	150	74	125	8	90	8	2500	0.75	FIC Index (P. aeruginosa H374; [7]): 0.75; FIC Index (P. aeruginosa H774): 1.25; MIC Nal-comb. (P. aeruginosa): 624 µg/mL; WI38 LD50 (WI38): 96 µg/mL; CC50 at 24 h (in vitro [5]): 96 µg/mL
FAKKLAKKLAKLL-NH2 [P75]	5	5	50 µg/mL	32	8	8	4	> 128	64	16	24	80	74	42	54	17	750	8	2500	0.75	FIC Index (P. aeruginosa H374; [7]): 0.75; FIC Index (P. aeruginosa H774): 1.25; MIC Nal-comb. (P. aeruginosa): 624 µg/mL; WI38 LD50 (WI38): 80 µg/mL; CC50 at 24 h (in vitro [5]): 80 µg/mL
